From patent US9611248B2, “Chemical compounds” (Syngenta Participations AG, priority 2013, dated 2017)

Tested on: a variety of test species
Assay: Post-emergence herbicidal activity
Format: in vivo
Design: key to ABUTH (Abutilon theophrasti) damage score / AMARE (Amaranthus retroflexus) damage score / ALOMY (Alopecurus myosuroides) damage score / ECHCG (Echinochloa crus-galli) damage score / ZEAMX (Zea mays) damage score / SOLNI (Solanum nigrum) damage score: 0 = no damage to plant, 5 = total damage to plant
Conditions: rate 250 g/ha, evaluated after 13 days
How it was run: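 Plants grown for 8 days in pots were sprayed post-emergence with compound in acetone/water (50:50) containing 0.5% Tween 20. They were kept in a glasshouse at 24/16 °C day/night, 14 h light, 65% humidity, watered twice daily. Damage was scored after 13 days (0 none to 5 total).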

Row | Compound | ABUTH (Abutilon theophrasti) damage score | ALOMY (Alopecurus myosuroides) damage score | AMARE (Amaranthus retroflexus) damage score | ECHCG (Echinochloa crus-galli) damage score | SETFA (Setaria faberi) damage score | ZEAMX (Zea mays) damage score
1 | COC1=C(C)C(=O)N(c2cc(C(F)(F)F)c(OCCc3cccs3)cn2)C1O (stereo not drawn) [AD76] | 4 | 2 | 4 | 1 | 3 | 1

Same assay, conditions: rate 1000 g/ha, evaluated after 13 days

Row | Compound | ABUTH (Abutilon theophrasti) damage score | ALOMY (Alopecurus myosuroides) damage score | AMARE (Amaranthus retroflexus) damage score | ECHCG (Echinochloa crus-galli) damage score | SETFA (Setaria faberi) damage score | ZEAMX (Zea mays) damage score
2 | COC1=C(C)C(=O)N(c2cc(C(F)(F)F)c(-c3ccc(C)c([N+](=O)[O-])c3)cn2)C1O (stereo not drawn) [AD127] | 2 | 1 | 5 | 4 | 4 | 4
3 | COC1=C(C)C(=O)N(c2cc(C(C)C)c(C(=O)NC(C)(C)C)cn2)C1O (stereo not drawn) [AD89] | 5 | 5 | 5 | 5 | 5 | 3
4 | COC1=C(C)C(=O)N(c2cc(C)c(-c3cccc(C#N)c3)cn2)C1O (stereo not drawn) [AD109] | 5 | 3 | 5 | 5 | 5 | 1
5 | COC1=C(C)C(=O)N(c2cc(C)c(-c3ccc(C#N)cc3)cn2)C1O (stereo not drawn) [AD111] | 5 | 2 | 5 | 1 | 4 | 1
6 | COC1=C(C)C(=O)N(c2cc(C(F)(F)F)c(OCCOC(C)(C)C)cn2)C1O (stereo not drawn) [AD80] | 4 | 3 | 5 | 4 | 5 | 1
7 | COC1=C(C)C(=O)N(c2cc(C)c(-c3ccccc3)cn2)C1O (stereo not drawn) [AD63] | 5 | 3 | 5 | 3 | 5 | 1
8 | CC(C)=C(C)c1cnc(N2C(=O)C(C)=C(Cl)C2O)cc1C(F)(F)F (stereo not drawn) [AA2] | 4 | 2 | 5 | 2 | 4 | 2
9 | COC1=C(C)C(=O)N(c2cc(C)c(-c3ccc([N+](=O)[O-])cc3)cn2)C1O (stereo not drawn) [AD116] | 2 | 0 | 5 | 0 | 1 | 1
10 | COC1=C(C)C(=O)N(c2cc(Cl)c(Br)cn2)C1O (stereo not drawn) [AD69] | 0 | 2 | 4 | 3 | 5 | 1
11 | COC1=C(C)C(=O)N(c2cc(C)c(S(=O)(=O)N3CCOCC3)cn2)C1O (stereo not drawn) [AD91] | 0 | 0 | 2 | 0 | 0 | 2
12 | COC1=C(C)C(=O)N(c2cc(C(F)(F)F)c(C(=O)NCc3ccccc3)cn2)C1O (stereo not drawn) [AD98] | 5 | 4 | 5 | 4 | 4 | 1
13 | COC1=C(C)C(=O)N(c2cc(C)c(S(=O)(=O)N3CCCCC3)cn2)C1O (stereo not drawn) [AD97] | 0 | 0 | 0 | 0 | 0 | 0
14 | COC1=C(C)C(=O)N(c2cc(C(F)(F)F)c(-c3ccc(F)cc3F)cn2)C1O (stereo not drawn) [AD131] | 5 | 2 | 5 | 4 | 4 | 1
15 | COC1=C(Cl)C(O)N(c2cc(C(F)(F)F)ccn2)C1=O (stereo not drawn) [AF2] | 5 | 4 | 5 | 5 | 5 | 3
16 | COC1=C(C)C(=O)N(c2cc(C(C)(C)CCl)c(Cl)nn2)C1O (stereo not drawn) [BD4] | 5 | 4 | 4 | 4 | 5 | 0
17 | COC1=C(C)C(=O)N(c2cc(C(F)(F)F)c(-c3ccc(S(C)(=O)=O)cc3)cn2)C1O (stereo not drawn) [AD125] | 4 | 4 | 5 | 4 | 4 | 1
18 | CC1=C(Br)C(O)N(c2cc(C(F)(F)F)ncn2)C1=O (stereo not drawn) [CB1] | 1 | 1 | 1 | 1 | 0 | 1
19 | COC(=O)c1cnc(N2C(=O)C(C)=C(OC)C2O)cc1C(F)(F)F (stereo not drawn) [AD37] | 4 | 3 | 5 | 3 | 2 | 0
20 | COC1=C(C)C(=O)N(c2cc(C(F)(F)F)c(SC)cn2)C1O (stereo not drawn) [AD14, 2-hydroxy-3-methoxy-4-methyl-1-[5-methylsulfanyl-4-(trifluoromethyl)-2-pyridyl]-2H-pyrrol-5-one] | 5 | 3 | 4 | 5 | 5 | 1
21 | C=Cc1cnc(N2C(=O)C(C)=C(OC)C2O)cc1C(F)(F)F (stereo not drawn) [AD27] | 5 | 4 | 5 | 5 | 4 | 2
22 | CC1=C(Cl)C(O)N(c2cc(C)ccn2)C1=O (stereo not drawn) [AA13] | 5 | 3 | 4 | 4 | 4 | 0
23 | COC1=C(C)C(=O)N(c2cc(C(C)(C)C)ncn2)C1O (racemic) [CD3] | 5 | 5 | 5 | 5 | 5 | 3
24 | COC1=C(C)C(=O)N(c2cc(C(F)(F)F)c(OCC3CCCO3)cn2)C1O (stereo not drawn) [AD57] | 5 | 4 | 5 | 5 | 5 | 1
25 | COC1=C(C)C(=O)N(c2nccc(C(F)(F)F)c2Br)C1O (stereo not drawn) [AD25] | 1 | 1 | 2 | 1 | 2 | 1
26 | CC1=C(Cl)C(O)N(c2cc(C(F)(F)F)c(C(=O)NC(C)(C)C)cn2)C1=O (stereo not drawn) [AA46] | 5 | 3 | 5 | 3 | 3 | 0
27 | COC1=C(C)C(=O)N(c2cc(C(C)(C)C)c(OC)nn2)C1O (stereo not drawn) [BD10] | 5 | 5 | 5 | 5 | 5 | 4
28 | COC1=C(C)C(=O)N(c2cc(C(F)(F)F)c(OCc3cccc(OC)c3)cn2)C1O (stereo not drawn) [AD74] | 3 | 2 | 5 | 2 | 5 | 1
29 | COC1=C(C)C(=O)N(c2ccc(C(=O)NC(C)(C)C)nn2)C1O (stereo not drawn) [BD13] | 5 | 5 | 5 | 5 | 5 | 4
30 | COC1=C(C)C(=O)N(c2cc(C)c(-c3ccccc3F)cn2)C1O (stereo not drawn) [AD121] | 5 | 3 | 5 | 3 | 5 | 1
